According to patent publication US20090053280A1, “COATING STENTS WITH CYCLIC RGD PEPTIDES OR MIMETICS” (priority 2007, published 2009):
Entries after “also recorded” stand apart in the source; their conditions may differ.

Test system: Human umbilical vein endothelial cells
Assay: Millicell migration assay of HUVECs towards a cyclic RGD peptide coated membrane
Type: cell-based
Details: 2 hours, uncoated membranes
Protocol: FIG. 7 (Example 5): Bar graph showing the results of migration assays utilizing specialized Millicell culture plates for in vitro testing. HUVECs were seeded onto the inside surface of Millicell membranes and semi-quantified following migration through a microporous membrane at the outside surface after two hours of incubation.
Millicell culture plate inserts from Millipore were coated with cyclic RGD peptide at the outside surface of the microporous membrane only to stimulate haplotactic cell migration. Human umbilical vein endothelial cells (HUVCEs) were loaded into millicell chambers in completed medium in the presence or absence of paclitaxel or sirolimus, and subsequently incubated for 2 hours at 37 C.°.

CC(=O)O[C@H]1C(=O)[C@@]2(C)[C@H]([C@H](OC(=O)c3ccccc3)[C@]3(O)C[C@H](OC(=O)[C@H](O)[C@@H](NC(=O)c4ccccc4)c4ccccc4)C(C)=C1C3(C)C)[C@]1(OC(C)=O)CO[C@@H]1C[C@@H]2O [paclitaxel]
Cell migration in the presence of the antiproliferative drug: marked decrease; also recorded: almost completely abolished
